In PubChem BioAssay (NCI) one finds TGI and GI50 data, which are given here for 9 compounds.

Test systems include M14 melanoma; SNB-75 CNS; 786-0 renal; RXF 393 renal; HOP-62 NSCLC; SK-MEL-2 melanoma; SF-539 CNS; SK-MEL-5 melanoma; UO-31 renal; OVCAR-3 ovarian.
What all share (test): NCI-60 cell line screen, 48 h

Several values for one entry are separate records, joined by “and”; a condition that tells them apart may be missing. Equal values may be shown once.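 Results reflect a 48-hour exposure of cells in 96-well plates to compound at five concentrations. GI50 is the concentration that inhibits growth by half. TGI marks complete inhibition of growth.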 Some results are limits rather than exact numbers.

On to `CCOC(=O)c1ccc(NC(=O)Oc2ccc3c(C)cc(=O)oc3c2)cc1`, for which the TGI was above 100 µM with M14 melanoma; 98.1 µM in the test with SNB-75 CNS; above 100 µM with 786-0 renal; above 100 µM with RXF 393 renal; 98.6 µM in the test on HOP-62 NSCLC; 79 µM in the test with SK-MEL-2 melanoma. Besides, the TGI was above 100 µM with SF-539 CNS, 29.1 µM with SK-MEL-5 melanoma, above 100 µM in the test with UO-31 renal and above 100 µM in the test with OVCAR-3 ovarian.

For the compound `COc1ccc(Sc2[nH]c(C(C)=O)c3ccccc23)cc1`, the GI50 in the test on M14 melanoma is 11.7 µM; in the test on SNB-75 CNS, 10.7 µM; in the test with 786-0 renal, 16.5 µM; with RXF 393 renal it was 13.6 µM; in the test with HOP-62 NSCLC it was 12.7 µM; in the test on SK-MEL-2 melanoma it was 13 µM. Besides, the GI50 with SF-539 CNS is 14.5 µM; in the test on SK-MEL-5 melanoma, 12.5 µM; in the test on UO-31 renal, 5.84 µM; with OVCAR-3 ovarian, 12.2 µM. Moreover, the TGI in the test with M14 melanoma was 25.1 µM; in the test with SNB-75 CNS, 51.3 µM; in the test with 786-0 renal, 34.8 µM; in the test with RXF 393 renal, 39 µM; in the test on HOP-62 NSCLC, 25.3 µM; in the test with SK-MEL-2 melanoma, 31.2 µM. Besides, the TGI came to 27.6 µM in the test on SF-539 CNS, 24.9 µM in the test with SK-MEL-5 melanoma, 23.4 µM in the test on UO-31 renal and 24.6 µM in the test on OVCAR-3 ovarian.

For the compound `Cn1c(I)c(C#CCO[Si](C)(C)C(C)(C)C)c(=O)[nH]c1=O`, the GI50 was 14 µM in the test with M14 melanoma; 16.2 µM with SNB-75 CNS; 18.6 µM in the test on 786-0 renal; 18.8 µM with RXF 393 renal; above 44.1 µM in the test with HOP-62 NSCLC; 13.9 µM with SK-MEL-2 melanoma. For the same compound, the GI50 in the test with SF-539 CNS was 16.9 µM; with SK-MEL-5 melanoma, 17.1 µM; in the test with UO-31 renal it was 14.6 µM; in the test with OVCAR-3 ovarian it was 6.49 µM. Also, the TGI in the test on M14 melanoma was 28.7 µM; in the test with SNB-75 CNS, 37.7 µM; with 786-0 renal, 33.2 µM; with RXF 393 renal, 34.3 µM; in the test on HOP-62 NSCLC it was above 59 µM; in the test on SK-MEL-2 melanoma, 27.7 µM. Moreover, the TGI in the test on SF-539 CNS came to 30.9 µM; with SK-MEL-5 melanoma, 31.3 µM; in the test with UO-31 renal, 28.6 µM; in the test with OVCAR-3 ovarian it was 16.2 µM.

For the compound `O=C1c2ccccc2C(=O)N1CCn1ccc(NC(c2ccccc2)(c2ccccc2)c2ccccc2)nc1=O`, the TGI in the test on M14 melanoma was 43 µM; with SNB-75 CNS, 74 µM; in the test with 786-0 renal, above 100 µM; with RXF 393 renal it was 35.5 µM; in the test with HOP-62 NSCLC it was 33 µM; with SK-MEL-2 melanoma it was 43.2 µM. Also, the TGI with SF-539 CNS worked out at 30.6 µM; with SK-MEL-5 melanoma it was 31.2 µM; in the test on UO-31 renal, 52.8 µM; with OVCAR-3 ovarian, 65.8 µM.

On to `CC(=O)Nc1ccc(S(=O)(=O)N2C(=O)CCC2C(=O)Nc2ccc(Br)cc2)cc1` (stereo not given), for which the GI50 in the test with M14 melanoma is 2.92 µM; in the test on SNB-75 CNS it was 1.81 µM; in the test with 786-0 renal it was 2.2 µM; with RXF 393 renal it was 2.31 µM; in the test on HOP-62 NSCLC it was 2.4 µM; with SK-MEL-2 melanoma, 4.05 µM. The GI50 in the test on SF-539 CNS is 2.45 µM; in the test with SK-MEL-5 melanoma, 1.56 µM; in the test with UO-31 renal it was 1.38 µM; in the test on OVCAR-3 ovarian it was 2.03 µM. The TGI with M14 melanoma turned out to be 32.8 µM; with SNB-75 CNS, 6.24 µM; with 786-0 renal it was 7.27 µM; with RXF 393 renal, 6.28 µM; with HOP-62 NSCLC, 11.3 µM; in the test on SK-MEL-2 melanoma, 17.8 µM. Also, the TGI in the test on SF-539 CNS is 6.78 µM; with SK-MEL-5 melanoma, 4.87 µM; in the test on UO-31 renal, 8.21 µM; with OVCAR-3 ovarian, 7.47 µM.

With `C(=NCCN1CCOCC1)=NC1CCCCC1`, the TGI in the test on M14 melanoma, with SNB-75 CNS, in the test on 786-0 renal, in the test with RXF 393 renal, with HOP-62 NSCLC and with SK-MEL-2 melanoma was above 100 µM each time. The TGI with SF-539 CNS, in the test on SK-MEL-5 melanoma, in the test with UO-31 renal and with OVCAR-3 ovarian was above 100 µM throughout.

Regarding `O=C(O)c1nnsc1-c1ccc(-c2snnc2C(=O)O)cc1`, the TGI in the test on M14 melanoma, in the test on SNB-75 CNS, with 786-0 renal, in the test with RXF 393 renal, in the test with HOP-62 NSCLC and with SK-MEL-2 melanoma was above 100 µM in each case. The TGI in the test with SF-539 CNS is 69.7 µM; in the test on SK-MEL-5 melanoma, above 100 µM; in the test on UO-31 renal it was above 100 µM; in the test on OVCAR-3 ovarian, above 100 µM.

In the case of `COc1cccc(F)c1C(=O)c1cnc(NC2CCN(S(C)(=O)=O)CC2)nc1N`, the GI50 with M14 melanoma was 5.33 µM; in the test with SNB-75 CNS, 4.13 µM; in the test on 786-0 renal it was 6.06 µM; in the test with RXF 393 renal, 1.88 µM; with HOP-62 NSCLC it was 4.64 µM; in the test with SK-MEL-2 melanoma, 3.43 µM. In addition, the GI50 was 3.68 µM in the test with SF-539 CNS, 2.06 µM in the test with SK-MEL-5 melanoma, 4.6 µM with UO-31 renal and 4.6 µM with OVCAR-3 ovarian. The TGI in the test with M14 melanoma was above 25 µM; in the test on SNB-75 CNS it was 9.57 µM; in the test with 786-0 renal, above 25 µM; in the test on RXF 393 renal it was 6.19 µM; in the test with HOP-62 NSCLC, 23 µM; in the test on SK-MEL-2 melanoma, 9.94 µM. For the same compound, the TGI was 11.7 µM in the test on SF-539 CNS, above 23.3 µM with SK-MEL-5 melanoma, 21.9 µM with UO-31 renal and 19 µM in the test on OVCAR-3 ovarian.

Regarding `CCCCOC(=O)CNC(=O)OC/C=C/C#CC#C/C=C/COC(=O)NCC(=O)OCCCC`, the GI50 in the test with M14 melanoma was above 100 µM; in the test with SNB-75 CNS, above 10 µM; with 786-0 renal, above 10 µM; in the test on RXF 393 renal, above 100 µM; in the test on HOP-62 NSCLC, above 100 µM; with SK-MEL-2 melanoma, above 100 µM. Besides, the GI50 with SF-539 CNS, in the test with SK-MEL-5 melanoma, in the test on UO-31 renal and in the test on OVCAR-3 ovarian was above 100 µM each time. Further, the TGI with M14 melanoma was above 100 µM; in the test on SNB-75 CNS, > 10 µM and 88.8 µM; in the test with 786-0 renal, above 100 µM; in the test on RXF 393 renal it was above 100 µM; in the test on HOP-62 NSCLC, above 100 µM; with SK-MEL-2 melanoma, above 100 µM. The TGI with SF-539 CNS, in the test on SK-MEL-5 melanoma, with UO-31 renal and with OVCAR-3 ovarian was above 100 µM in each case.
